According to patent US20190292516A1, “METHOD FOR IMPROVING PRODUCT TITER IN A CELL AND A CELL MEDIA FOR IMPROVING THE SAME” (VALITACELL LIMITED, priority 2018, published 2019):

How the values were obtained:
Type in all cases: cell-based, Chinese Hamster
[1] = system: CHO-S stable clone producing an anti-Her2 like IgG1 antibody; experiment: Apoptosis analysis of 3TAA supplemented shake flask cultures; details: 3TAA 2.5 mM added Day 0, shake flask, analysed Day 5
Procedure: (§1) Shake flask cultures were performed in vented Erlenmeyer flasks with a 30 ml working culture volume. Cells were seeded at 0.2×10^6 cells ml^−1. 3TAA was added at 2.5 mM (optimum concentrations from deep well plate culture) on Day 0. Growth and titer were monitored daily. Total RNA and histone extracts were collected from Day 5 of culture. Cell cycle and apoptosis analysis were performed on Day 4 and Day 5 post seeding respectively.

[2] = system: CHO-S stable clone producing an anti-Her2 like IgG1 antibody; experiment: Cell cycle analysis by propidium iodide staining and flow cytometry; details: 3TAA 2.5 mM added Day 0, shake flask, analysed Day 4
Procedure: as §1
1×10^6 cells were extracted from culture and fixed in 4% paraformaldehyde (Alfa Aesar; Thermo Fisher Scientific). The cells were then stained with propidium iodide using the FxCycle™ PI/RNase Staining Solution (Thermo Fisher Scientific). Cell cycle analysis was performed on the Attune Acoustic Focusing Cytometer (Thermo Fisher Scientific).

[3] = system: CHO-S stable clone producing an anti-Her2 like IgG1 antibody; experiment: Batch shake flask culture supplemented with 3TAA; details: 2.5 mM, Day 0 addition, 10 days
Procedure: as §1

[4] = Batch shake flask culture supplemented with 3TAA; details: Chinese hamster, CHO-S stable clone producing an anti-Her2 like IgG1 antibody, Day 0 addition
Procedure: as §1

[5] = system: CHO-S stable clone producing an anti-Her2 like IgG1 antibody; experiment: Deep well shaking plate culture with chemical enhancer added at Day 0 or Day 3; cell growth, viability and titer
Procedure: The Applicant uses a platform consisting of screening Chinese Hamster Ovary (CHO) cell clone leads grown in a deep well plate coated with media containing 3TAA. The cells are measured for increased growth and productivity (titer) to determine whether 3TAA, and other enhancer chemicals, have offered the optimum cell culture environment, and can improve the growth and/or productivity of promising lead clones, which otherwise, grown in sub-optimal conditions, would not have been selected. To establish optimum concentration for the best titer boost, high throughput experimentation was performed in 96 deep well plates (Greiner Bio-One, Gloucestershire, United Kingdom). The cell line used was a CHO-S stable clone producing an anti-Her2 like IgG1 antibody. Cells were cultured in CD CHO medium (Thermo Fisher Scientific, Paisley, UK), supplemented with 8 mM L-glutamine, 1% HT supplement and 12.5 ug/ml puromycin selection marker (Thermo Fisher Scientific, Paisley, UK). Cells grown in these plates were incubated at 320 rpm (25 mm throw), 37° C., 5% CO2 and 85% humidity. The plates were covered with vented lids and secured using clamps (“System Duetz”; Enzyscreen B.V., Heemstede, Netherlands). Cells were seeded at 0.2×10^6 cells ml^−1 with a seeding volume of 450 μL (unless specified otherwise). Chemical enhancer molecules, including 3TAA, were trialled at 4 to 10 different concentrations at Day 0 in culture. Subsequently, a subset of concentrations was carried forward for delayed addition at Day 3 of culture. Day 3 was chosen based on the cell growth profile in deep well plates. Cells were cultured for 5 days before culture attributes (cell growth and titer) were recorded, unless otherwise stated. Cell growth was measured using the PrestoBlue® Assay (ThermoFisher Scientific), viability was verified using the Vi-cell™ cell viability analyser (Beckmann Coulter, High Wycombe, UK), and titer was measured using the Valita™TITER assay (Valitacell, Dublin, Ireland).

[6] = 3TAA 2.5 mM, Day 0 addition, deep well plate

Structure (SMILES): O=C(O)Cc1ccsc1 [3TAA, 3-Thiopheneacetic acid]
- initiation of apoptotic pathways [1]: Apoptotic pathways were not initiated
- increase in accumulation in the G1 phase [2]: 11%
- culture viability in comparison to vehicle and no addition controls [3]: remained unaffected
- increase in total volumetric titer [3]: 1.9 fold
- decrease in peak viable cell density at 10 days, 2.5 mM [4]: 30%
- reduction in IVCD ([5]; 2.5 mM, Day 0 addition): 25%
- titer boost ([5]; 2.5 mM, Day 0 addition): 160%
- reduction in IVCD ([5]; 2.5 mM, Day 3 addition): 20%
- titer boost ([5]; 2.5 mM, Day 3 addition): 177%
- reduction in IVCD ([5]; 4 mM, Day 0 addition): 50%
- titer boost ([5]; 4 mM, Day 0 addition): 17%
- reduction in IVCD ([5]; 4 mM, Day 3 addition): 25%
- titer boost ([5]; 4 mM, Day 3 addition): 125%
- cell growth reduction [5, 6]: 25%
- titer boost [5, 6]: 1.59 fold
- titer boost ([5]; delayed addition at exponential phase (Day 3), concentration not given): 2.6 fold
